Measured values as given in patent US20140378502A1, “Par1 Inhibitors for Use in the Treatment or Prevention of Paramyxoviridae Infections” (Université Laval, priority 2011, published 2014).
Where no end group is shown, it is not given here.

What was measured:
hMPV [1] = settings: background statement; cited from earlier work
hMPV [2] = settings: background statement; cited from earlier work; remark: listed apart in the source
hMPV [3] = settings: background statement; cited from earlier work; remark: listed apart in the source
[4] = Uninfected (sham infected) mice treated for 5 days, check for toxic and non specific effects; type: in vivo, BALB/c mice; settings: 500 μM
Protocol: In the second protocol, groups of 18 4-6-week-old BALB/c mice (Charles River Laboratories) were infected intranasally with 6-8×10^5 TCID50 hMPV strain C-85473 in 25 μl of OptiMEM™ supplemented with the PAR-1 agonist, PAR-1 antagonist or control peptide at a final concentration of 500 μM. As infected controls, groups of 18 4-6-week-old BALB/c mice (Charles River Laboratories) were infected intranasally with 6-8×10^5 TCID50 hMPV strain C-85473 in 25 μl of OptiMEM™ supplemented with H2O or DMSO. As uninfected control, groups 18 mice were sham infected with the concentrated supernatant of non-infected LLC-MK2 cells supplemented with the PAR-1 agonist, PAR-1 antagonist or control peptide at a final concentration of 500 μM or DMSO. On day 1 through 4 post infection, animals were treated with the PAR-1 agonist, PAR-1 antagonist or control peptide at a final concentration of 50 μM or 500 μM, or H2O or DMSO for control groups, resulting in a 5-day treatment in total. Animals were housed in groups of five and three in micro-isolator cages. The animals were evaluated on a daily basis for mortality, weight loss, and the presence of symptoms. On day 5 post-infection, lungs were removed from six mice per group for the evaluation of viral titres by cell culture and cytokine expression by Iuminex™. […]
(§1) 250 μL of lung homogenates (see section “Pulmonary viral titers”) were added to 250 μl 50 mM KPO4, pH 6.0 buffer containing 0.2% CHAPS {3-[(3-cholamidopropyl)-dimethylammonio]1-1-propanesulfonate} (Sigma) and 0.2% of a protease inhibitor cocktail (Sigma) and stored at −20° C. until the day of analysis. Samples were centrifuged at 13,800×g for 10 min at 4° C., and 50 μl of the supernatant was used for cytokine quantification. Levels of interleukin-4, IL-6, IL-12(p40), IL-12(p70), IFN-γ, KC, MCP-1, MIP-1α, RANTES were determined by the use of a 9-plex mouse bead kits (BioRad™/Millipore™) according to the manufacturer's instructions. Experiments were performed in a 96-well filter plate and results were analysed with the Luminex™ system (Qiagen™).

hMPV strain C-85473 [5] = experiment: hMPV-infected BALB/c mice, three-day prophylactic treatment regimen (experiment 1); type: in vivo; settings: 3-day treatment; for mice that reached the humane endpoint: none in the untreated group
Protocol: (§2) hMPV viral titers were determined by 10-fold serial dilutions of virus in 24-well plates containing LLC-MK2 cells. Before infection, cells were washed twice with phosphate-buffered saline (PBS) to remove residual serum proteins that could inhibit trypsin activity. Infected plates were incubated at 37° C. with 5% CO2 and replenished with 1 μl of fresh trypsin (0.0002%) every other day. hRSV viral titers were determined by 10-fold serial dilutions of virus in 24-well plates containing Hep2 cells. Before infection, cells were washed twice with phosphate-buffered saline (PBS). Infected plates were incubated at 37° C. with 5% CO2. On day 4 post infection, plates were fixed with 80% acetone at −20° C. for 30 min, washed with PBS and air dried. The presence of hRSV was detected by an immuno-staining assay using a monoclonal goat Anti-Respiratory Syncytial Virus primary antibody and a donkey anti-Goat IgG Secondary Antibody, HRP conjugate (both from Cederlane). Virus titers were reported as 50% tissue culture infectious doses (TCID50) per ml, per mouse or per gram of lung. The lower limit of detection of the assay is 10^2 TCID50 per gram. TCID50 were calculated by the Reed and Muench method.
In the first protocol, groups of 12 4-6-week-old female BALB/c mice (Charles River Laboratories) were infected intranasally with 4-7×10^5 TCID50 hMPV strain C-85473 in 25 μl of OptiMEM™ supplemented with the PAR-1 or PAR-1 antagonist at a final concentration of 50 μM or 500 μM. As infected controls, groups of 12 4-6-week-old BALB/c mice (Charles River Laboratories) were infected intranasally with 4-7×10^5 TCID50 hMPV strain C-85473 in 25 μl of OptiMEM™ supplemented with H2O or DMSO. As an uninfected control, 12 mice were sham infected with the concentrated supernatant of non-infected LLC-MK2 cells supplemented with DMSO. On day 1 and 2 post infection, animals were treated with the PAR-1 agonist or PAR-1 antagonist at a final concentration of 50 μM or 500 μM, or H2O or DMSO for control groups, resulting in a 3-day treatment in total. All animals were housed in groups of four in micro-isolator cages. The animals were evaluated on a daily basis for mortality, weight loss, and the presence of symptoms. On day 5 post-infection, lungs were removed from six mice per group for the evaluation of viral titres by cell culture and cytokine expression by Luminex™.
(§3) On day 5 post infection, six animals per group were sacrificed, the lungs were removed and snap frozen in liquid nitrogen. Lungs were weighed, homogenized in 1 ml of PBS, centrifuged (2000 rpm, 10 min) and the supernatant was used to infect LLC-MK2 monolayers (in case of hMPV-infected mice) or Hep2 monolayer (in case of hRSV-infected mice) for virus titration as reported in the section “Viral titers”.
as §1
(§4) Differences in weight loss between groups was analysed by repeated measures two-way ANOVA. Viral titers, cytokine levels and mean histopathology scores were analysed using student t-test.

hMPV strain C-85473 [6] = experiment: hMPV-infected BALB/c mice, five-day pre-exposure prophylactic treatment regimen (experiment 2); type: in vivo; settings: 500 μM, 5-day treatment
Protocol: as §2
In the second protocol, groups of 18 4-6-week-old BALB/c mice (Charles River Laboratories) were infected intranasally with 6-8×10^5 TCID50 hMPV strain C-85473 in 25 μl of OptiMEM™ supplemented with the PAR-1 agonist, PAR-1 antagonist or control peptide at a final concentration of 500 μM. As infected controls, groups of 18 4-6-week-old BALB/c mice (Charles River Laboratories) were infected intranasally with 6-8×10^5 TCID50 hMPV strain C-85473 in 25 μl of OptiMEM™ supplemented with H2O or DMSO. As uninfected control, groups 18 mice were sham infected with the concentrated supernatant of non-infected LLC-MK2 cells supplemented with the PAR-1 agonist, PAR-1 antagonist or control peptide at a final concentration of 500 μM or DMSO. On day 1 through 4 post infection, animals were treated with the PAR-1 agonist, PAR-1 antagonist or control peptide at a final concentration of 50 μM or 500 μM, or H2O or DMSO for control groups, resulting in a 5-day treatment in total. Animals were housed in groups of five and three in micro-isolator cages. The animals were evaluated on a daily basis for mortality, weight loss, and the presence of symptoms. On day 5 post-infection, lungs were removed from six mice per group for the evaluation of viral titres by cell culture and cytokine expression by Iuminex™. Lungs of another six mice per group were removed for histopathological analysis.
as §3, §1
On day 5 post infection, 6 animals per group were sacrificed, and the lungs were collected at specified time points and fixed with 4% buffered formalin. […]

hMPV strain C-85473 [7] = experiment: hMPV-infected BALB/c mice, five-day treatment started simultaneously or 24 h post infection (experiment 3); type: in vivo; settings: 500 μM
Protocol: as §2
In a third protocol, Two groups of 12 4-6-week-old BALB/c mice (Charles River Laboratories) were infected intranasally with 6×105 TCID50 hMPV strain C-85473 in 25 μl of OptiMEM™, supplemented with the PAR-1 agonist or PAR-1 antagonist at a final concentration of 500 μM and treated on days 1 through 4 post infection with the PAR-1 agonist or PAR-1 antagonist (500 μM). Two more groups of 4-6-week-old BALB/c mice (Charles River Laboratories) were infected intranasally with 6×105 TCID50 hMPV strain C-85473 in 25 μl of OptiMEM™. These groups were treated from day 1 though 5 post infection (treatment delayed 24 h post-infection) with the PAR-1 agonist or PAR-1 antagonist (500 μM). As infected controls, groups of 12 4-6-week-old BALB/c mice (Charles River Laboratories) were infected intranasally with 4×105 TCID50 hMPV strain C-85473 in 25 μl of OptiMEM supplemented with DMSO. All animals were housed in groups of four in micro-isolator cages. The animals were evaluated on a daily basis for mortality, weight loss, and the presence of symptoms. On day 5 post-infection, lungs were removed from six mice per group for the evaluation of viral titres by cell culture
as §3, §4

**Q.** With `NC(=O)c1ncn([C@@H]2O[C@H](CO)[C@@H](O)[C@H]2O)n1` [Ribavirin] as the molecule, how does the “in vitro activity against hMPV” value (hMPV [1]) read?
**A.** good in vitro activity

**Q.** What about the “effect in hMPV-infected mice” value (hMPV [2]) of the same molecule?
**A.** effective

**Q.** What about the “effect in a lung transplant recipient with hMPV pneumonia” value (hMPV [3]) of the same molecule?
**A.** effective

**Q.** Which “weight loss or symptoms in uninfected mice” value [4] does the source give for FTLLR-NH2 [control peptide, FTLLR-NH2] here?
**A.** In none of the uninfected groups significant weight loss or symptoms were observed

**Q.** Which “effect in hMPV-infected mice” value (hMPV [2]) does the source give for `C[C@]12C[C@H](O)[C@H]3[C@@H](CCC4=CC(=O)CC[C@@]43C)[C@@H]1CC[C@@H]2C(=O)CO` [corticosterone] here?
**A.** minimal benefit

**Q.** For TFLLR-NH2 [PAR-1 agonist], which “mice that reached the humane endpoint” value (hMPV strain C-85473 [5]; 50 μM) is on record?
**A.** One out of 6

**Q.** And the “difference in weight loss vs infected untreated mice” value (hMPV strain C-85473 [5]; 500 μM)?
**A.** significant on days 5 through 7

**Q.** And the “mice that reached the humane endpoint” value (hMPV strain C-85473 [5]; 500 μM)?
**A.** 3 out of 6

**Q.** And the pulmonary viral titers (hMPV strain C-85473 [5]; day 5 post hMPV infection, 50 or 500 μM, vs diluted DMSO or H2O treated mice)?
**A.** No significant difference

**Q.** What about the “cytokine expression in the lungs” value (hMPV strain C-85473 [5]; day 5 post infection, 50 or 500 μM, Luminex) of the same molecule?
**A.** dose-dependent increases in IL-6, IL-12(p40) and MCP-1

**Q.** And the weight loss (hMPV strain C-85473 [5]; hMPV-infected mice, 50 or 500 μM intranasal, vs infected untreated mice (H2O or DMSO), followed 14 days)?
**A.** dose-dependent increase in weight loss

**Q.** What about the “lung histopathological inflammation criteria compared to uninfected, untreated mice” value (hMPV strain C-85473 [6]; day 5 post hMPV infection) of the same molecule?
**A.** increases in all but one (peribronchial) inflammation criteria

**Q.** And the “pulmonary inflammation (histopathology)” value (hMPV strain C-85473 [6]; day 5 post hMPV infection, infected treated vs infected untreated mice)?
**A.** No significant difference

**Q.** And the “pulmonary cytokine/chemokine levels compared to infected mice treated with H2O” value (hMPV strain C-85473 [6]; day 5 post infection, Luminex)?
**A.** increased levels of IL-4, IL-12(p40) and MCP-1

**Q.** What about the “pulmonary cytokine/chemokine levels compared to mice treated with the control peptide” value (hMPV strain C-85473 [6]; day 5 post infection, Luminex) of the same molecule?
**A.** increased levels of IL-4, KC, MCP-1 and MIP-1α

**Q.** And the pulmonary viral titers (hMPV strain C-85473 [6]; day 5 post infection, vs other infected groups)?
**A.** No significant difference

**Q.** And the “weight loss (and symptoms)” value (hMPV strain C-85473 [6]; hMPV-infected mice, vs infected untreated mice)?
**A.** no significant difference in weight loss

**Q.** And the weight loss (hMPV strain C-85473 [7]; 5-day prophylactic treatment started simultaneously with infection, vs infected/untreated group (FIG. 12))?
**A.** regained weight less rapidly than the control

**Q.** What about the weight loss (hMPV strain C-85473 [7]; 5-day treatment started 24 h post infection, vs infected/untreated mice (FIG. 13)) of the same molecule?
**A.** regained their weight more slowly than infected/untreated mice

**Q.** And the weight loss (hMPV strain C-85473 [7]; 5-day treatment started 24 h post infection, vs infected/untreated mice (FIG. 13), listed as PAR1 agonist)?
**A.** more weight loss than infected/untreated mice

**Q.** What about the “pulmonary viral titers, treatment started simultaneously vs 24 h post infection” value (hMPV strain C-85473 [7]; day 5 post infection) of the same molecule?
**A.** No significant difference

**Q.** What about the “weight loss or symptoms in uninfected mice” value [4] of the same molecule?
**A.** In none of the uninfected groups significant weight loss or symptoms were observed
